The values below come from US20210300924A1, “5-[6-[[3-(4,5,6,7-TETRAHYDROPYRAZOLO[4,3-C]PYRIDIN-1-YL)AZETIDIN-1-YL]METHYL]MORPHOLIN-4-YL]QUINOLINE-8-CARBONITRILE DERIVATIVES AND SIMILAR COMPOUNDS AS TLR7-9 ANTAGONISTS FOR TREATING SYSTEMIC LUPUS ERYTHEMATOSUS” (Hoffmann-La Roche Inc., priority 2018, published 2021).

The term inhibition denotes the change of the read-out against control, counted positive when it falls.

One data set deals with T1, TLR9 (Homo sapiens, UniProt Q9NR96).
T1 sequence (Q9NR96 26-1032): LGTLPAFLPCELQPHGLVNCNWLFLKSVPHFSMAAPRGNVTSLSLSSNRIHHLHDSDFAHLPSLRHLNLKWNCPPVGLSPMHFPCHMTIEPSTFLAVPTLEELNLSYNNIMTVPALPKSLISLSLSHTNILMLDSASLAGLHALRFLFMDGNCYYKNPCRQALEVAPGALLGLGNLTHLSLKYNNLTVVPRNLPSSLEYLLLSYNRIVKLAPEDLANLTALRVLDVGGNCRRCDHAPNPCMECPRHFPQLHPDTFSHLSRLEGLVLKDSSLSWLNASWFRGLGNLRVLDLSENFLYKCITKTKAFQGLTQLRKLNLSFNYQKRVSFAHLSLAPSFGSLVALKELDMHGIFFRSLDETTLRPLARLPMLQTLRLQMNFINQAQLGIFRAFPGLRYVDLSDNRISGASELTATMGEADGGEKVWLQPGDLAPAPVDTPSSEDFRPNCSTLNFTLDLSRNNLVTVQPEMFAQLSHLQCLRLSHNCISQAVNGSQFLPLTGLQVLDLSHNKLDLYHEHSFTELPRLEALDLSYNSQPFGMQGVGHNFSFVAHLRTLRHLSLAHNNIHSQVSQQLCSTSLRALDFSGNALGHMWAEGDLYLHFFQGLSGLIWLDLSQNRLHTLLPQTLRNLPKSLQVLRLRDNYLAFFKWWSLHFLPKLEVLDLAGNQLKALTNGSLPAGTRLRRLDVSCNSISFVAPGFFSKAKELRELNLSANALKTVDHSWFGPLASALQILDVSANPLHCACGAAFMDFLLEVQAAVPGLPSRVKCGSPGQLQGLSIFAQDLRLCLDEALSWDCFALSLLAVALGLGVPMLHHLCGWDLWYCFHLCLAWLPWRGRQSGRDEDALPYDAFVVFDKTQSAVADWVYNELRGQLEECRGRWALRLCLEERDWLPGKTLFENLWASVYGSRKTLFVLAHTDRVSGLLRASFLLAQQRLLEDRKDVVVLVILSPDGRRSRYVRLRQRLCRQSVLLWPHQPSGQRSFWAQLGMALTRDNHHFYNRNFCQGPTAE
In words: HEK293-Blue-hTLR-9 cells assay. The format is cell-based. Also on record: host or cells: HEK293 (HEK-Blue hTLR9). The conditions noted are these: HEK293-Blue-hTLR9 cells, ODN2006 stimulation, 20 hrs, SEAP reporter; read-out: HEK/hTLR9 IC50. The source says:
HEK293-Blue-hTLR-9 Cells Assay:
A stable HEK293-Blue-hTLR-9 cell line was purchased from InvivoGen (Cat. #: hkb-htlr9, San Diego, Calif., USA). These cells were originally designed for studying the stimulation of human TLR9 by monitoring the activation of NF-κB. A SEAP (secreted embryonic alkaline phosphatase) reporter gene was placed under the control of the IFN-β minimal promoter fused to five NF-κB and AP-1-binding sites. The SEAP was induced by activating NF-κB and AP-1 via stimulating HEK-Blue hTLR9 cells with TLR9 ligands. Therefore the reporter expression was declined by TLR9 antagonist under the stimulation of a ligand, such as ODN2006 (Cat. #: tlr1-2006-1, Invivogen, San Diego, Calif., USA), for incubation of 20 hrs. The cell culture supernatant SEAP reporter activity was determined using QUANTI-Blue™ kit (Cat. #: rep-01, Invivogen, San Diego, Calif., USA) at a wavelength of 640 nm, a detection medium that turns purple or blue in the presence of alkaline phosphatase.
HEK293-Blue-hTLR9 cells were incubated at a density of 250,000-450,000 cells/mL in a volume of 170 μL in a 96-well plate in Dulbecco's Modified Eagle's medium (DMEM) containing 4.5 g/L glucose, 50 U/mL penicillin, […], 2 mM L-glutamine, 10% (v/v) heat-inactivated fetal bovine serum with addition of 20 μL test compound in a serial dilution in the presence of final DMSO at 1% and 10 μL of 20 uM ODN2006 in above DMEM, perform incubation under 37° C. in a CO2 incubator for 20 hrs. Then 20 μL of the supernatant from each well was incubated with 180 μL Quanti-blue substrate solution at 37° C. for 2 h and the absorbance was read at 620-655 nm using a spectrophotometer. The signaling pathway that TLR9 activation leads to downstream NF-κB activation has been widely accepted, and therefore similar reporter assay was modified for evaluating TLR9 antagonist.

Another data set has as its target T2, CYP2D6 (Homo sapiens, UniProt P10635).
T2 construct: tissue BD-Gentest 452117; host or cells: human liver microsomes
As to the kind of experiment: CYP inhibition assay in human liver microsome. The format is in vitro ADME. The conditions noted are these: human liver microsomes, probe dextromethorphan, dextromethorphan substrate, percentage inhibition <0: not or weak inhibitor, read-out: CYP 2D6 inhibition % @ 10 μM. The protocol:
This is a high throughput screening assay used for assessment of reversible inhibition of CYP2D6 activity of test compounds in human liver microsome (HLM) in early discovery stage.
10 mM DMSO stock solutions of test compounds were diluted in DMSO to generate 2 mM intermediate stock solution. 250 nL of intermediate stock solution were transferred in duplicate into 3 separate 384 well microtitre plates (assay-ready plates). A mixture of HLM and each substrate was made up. 45 μL of HLM substrate mix was then transferred to each well of an assay ready plate and mixed. The negative (solvent) and positive control (standard inhibitor for CYP 2D6) were included in each assay ready plate. The assay ready plate was warmed to 37° C. in an incubator over 10 minutes. 5 μL pre-warmed NADPH regenerating system was added to each incubation well to start the reaction. Final incubation volume was 50 μL. The assay plate then was placed back in the 37° C. incubator. After 10 minutes incubation, incubates were quenched by addition of 50 μL 100% acetonitrile containing internal standards (20 ng/mL D3-Dextrorphan). The supernatants were collected for RapidFire/MS/MS analysis.
RapidFire online solid phase extraction/sample injection system (Agilent) coupled with API4000 triple quadrupole mass spectrometer (AB Sciex) were used for sample analysis. The mobile phase composed of acetonitrile and water supplemented with 0.1% formic acid. A C4 solid phase extraction cartridge is used for sample separation. MS detection is achieved in positive ion MRM mode.
Peak areas for substrate, metabolite and internal standard are determined using the RapidFire integrator software (version 3.6.12009.12296). Peak area ratios (PAR) of metabolite and internal standard (stable-labelled metabolite) are then calculated. The measurement window for each experiment is then defined:
PAR (0% activity)=average PAR for all incubations containing concentrated inhibitor;
Par (100% activity)=average PAR for all incubations containing no inhibitor (DMSO controls);
% Activity (test inhibitor)=
[PAR(test inhibitor)−PAR(0% activity)]/[PAR(100% activity)−PAR(0% activity)]; % Inhibition (test inhibitor)=100−% Activity (test inhibitor).
(In general: Microsomes from liver hold many membrane-bound enzymes, among them those of drug oxidation.)

T2 sequence (P10635 whole entry): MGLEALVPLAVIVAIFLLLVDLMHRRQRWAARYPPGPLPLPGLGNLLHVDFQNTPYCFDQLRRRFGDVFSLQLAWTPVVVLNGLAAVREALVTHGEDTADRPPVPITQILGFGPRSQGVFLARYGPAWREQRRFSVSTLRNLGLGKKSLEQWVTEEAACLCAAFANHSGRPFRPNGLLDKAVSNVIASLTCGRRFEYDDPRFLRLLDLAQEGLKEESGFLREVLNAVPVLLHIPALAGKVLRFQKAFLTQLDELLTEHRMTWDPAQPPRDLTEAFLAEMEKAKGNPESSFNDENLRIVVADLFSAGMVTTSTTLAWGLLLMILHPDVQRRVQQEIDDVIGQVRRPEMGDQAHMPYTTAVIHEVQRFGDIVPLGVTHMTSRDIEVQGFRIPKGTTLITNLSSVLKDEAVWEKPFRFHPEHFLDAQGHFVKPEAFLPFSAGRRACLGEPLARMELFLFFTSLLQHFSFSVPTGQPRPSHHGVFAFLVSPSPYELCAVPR

Consider `C[C@@H]1Cc2cnn(C3CN(C[C@H]4CN(c5ccc(C#N)c6ncccc56)C[C@@H](C)O4)C3)c2CN1` (single isomer, unassigned) [Example 28], for which the IC50 at TLR9 is 71 nM. For the same compound, the inhibition at 10 min, 10 µM at CYP2D6 was 0.5%.
Consider `C[C@@H]1CN(c2ccc(C#N)c3ncccc23)C[C@H](CN2CC(n3cc4c(n3)CCN[C@@H]4C)C2)O1` [Example 21, 5-[(2R,6S)-2-methyl-6-[[3-[(4R)-4-methyl-4,5,6,7-tetrahydropyrazolo[4,3-c]pyridin-2-yl]azetidin-1-yl]methyl]morpholin-4-yl]quinoline-8-carbonitrile], for which the IC50 at TLR9 came out at 80 nM. Further, on CYP2D6, the inhibition at 10 min, 10 µM was 10.5%.
Turning to `C[C@@H]1CN(c2ccc(C#N)c3ncccc23)C[C@H](CN2CC(n3ncc4c3CN[C@@H](C)C4)C2)O1` (single isomer, unassigned) [Example 27], at TLR9, the IC50 was 65 nM. For the same compound, the inhibition at 10 min, 10 µM on CYP2D6 was 22%.
Turning to `C[C@@H]1CN(c2ccc(C#N)c3ncccc23)C[C@H](CN2CC(n3ncc4c3CCN[C@@H]4C)C2)O1` [Example 20, 5-[(2R,6S)-2-methyl-6-[[3-[(4R)-4-methyl-4,5,6,7-tetrahydropyrazolo[4,3-c]pyridin-1-yl]azetidin-1-yl]methyl]morpholin-4-yl]quinoline-8-carbonitrile], the IC50 at TLR9 is 76 nM. In addition, on CYP2D6, the inhibition at 10 min, 10 µM is -6%.
Consider `C[C@@H]1CN(c2ccc(C#N)c3ncccc23)C[C@H](CN2CC(n3cc4c(n3)C[C@H](C)NC4)C2)O1` [Example 19, 5-[(2R,6S)-2-methyl-6-[[3-[(6S)-6-methyl-4,5,6,7-tetrahydropyrazolo[4,3-c]pyridin-2-yl]azetidin-1-yl]methyl]morpholin-4-yl]quinoline-8-carbonitrile], for which the IC50 on TLR9 stood at 122 nM. For the same compound, the inhibition at 10 min, 10 µM on CYP2D6 is -2.5%.
As for `CCN1CCc2cnn(C3CN(C[C@H]4CN(c5ccc(C#N)c6ncccc56)C[C@@H](C)O4)C3)c2C1` [Example 6, 5-[(2S,6R)-2-[[3-(6-ethyl-5,7-dihydro-4H-pyrazolo[3,4-c]pyridin-1-yl)azetidin-1-yl]methyl]-6-methyl-morpholin-4-yl]quinoline-8-carbonitrile], on TLR9, the IC50 amounted to 153 nM. The inhibition at 10 min, 10 µM on CYP2D6 is 8.5%.
The matching figures for `C[C@@H]1CN(c2ccc(C#N)c3ncccc23)C[C@H](CN2CC(n3cc4c(n3)CCN[C@H]4C)C2)O1` [Example 23, 5-[(2R,6S)-2-methyl-6-[[3-[(4S)-4-methyl-4,5,6,7-tetrahydropyrazolo[4,3-c]pyridin-2-yl]azetidin-1-yl]methyl]morpholin-4-yl]quinoline-8-carbonitrile]: 84 nM and 3%.
For the compound `C[C@@H]1CN(c2ccc(C#N)c3ncccc23)C[C@H](CN2CC(n3ncc4c3[C@@H](C)NCC4)C2)O1` (single isomer, unassigned) [Example 31], the IC50 at TLR9 stood at 61 nM. Besides, the inhibition at 10 min, 10 µM on CYP2D6 was -3.5%.
In the case of `Cc1c2c(nn1C1CN(C[C@H]3CN(c4ccc(C#N)c5ncccc45)C[C@@H](C)O3)C1)CCNC2` [Example 13, 5-[(2R,6S)-2-methyl-6-[[3-(3-methyl-4,5,6,7-tetrahydropyrazolo[4,3-c]pyridin-2-yl)azetidin-1-yl]methyl]morpholin-4-yl]quinoline-8-carbonitrile], the IC50 on TLR9 stood at 118 nM. The inhibition at 10 min, 10 µM at CYP2D6 amounted to 3%.
The matching figures for `CC(C)N1CCc2cn(C3CN(C[C@H]4CN(c5ccc(C#N)c6ncccc56)C[C@@H](C)O4)C3)nc2C1` [Example 9, 5-[(2S,6R)-2-[[3-(6-isopropyl-5,7-dihydro-4H-pyrazolo[3,4-c]pyridin-2-yl)azetidin-1-yl]methyl]-6-methyl-morpholin-4-yl]quinoline-8-carbonitrile]: 172 nM and 15%.
In the case of `C[C@@H]1CN(c2ccc(C#N)c3ncccc23)C[C@H](CN2CC(n3cc4c(n3)[C@H](C)NCC4)C2)O1` (single isomer, unassigned) [Example 34], at TLR9, the IC50 was 36 nM. In addition, the inhibition at 10 min, 10 µM on CYP2D6 was -11.5%.
